In patent publication US20080312167A1, “4'' Amino Linked Macrolides Useful for the Treatment of Microbial Infections” (priority 2005, published 2008):

Columns and labels:
Experiment in all cases: MIC, standard broth dilution method in microtitre
Format in all cases: cell-based
[1] = test system: sensitive Staphylococcus aureus
Experimental: (§1) Using a standard broth dilution method in microtitre, compounds were tested for antibacterial activity.
(§2) The MIC (μg/ml) of test compounds against various organisms was determined including: Staphylococcus aureus, Streptococcus pneumoniae, Streptococcus pyogenes, Enterococcus faecalis, Haemophylus influenzae, Moraxella catarrhalis.

[2] = test system: Moraxella catarrhalis
Experimental: as §1, §2

[3] = test system: Haemophylus influenzae
Experimental: as §1, §2

[4] = test system: Enterococcus faecalis
Experimental: as §1, §2

| Compound | MIC [1] [µg/mL] | MIC [2] [µg/mL] | MIC [3] [µg/mL] | MIC [4] [µg/mL] |
| --- | --- | --- | --- | --- |
| CC[C@H]1OC(=O)[C@H](C)[C@@H](O[C@H]2C[C@@](C)(OC)[C@H](NC(=O)CCOCCOCCCc3ccc4c(c3)c(=O)c(C(=O)O)cn4CCOC)[C@H](C)O2)[C@H](C)[C@@H](O[C@@H]2O[C@H](C)C[C@H](N(C)C)[C@H]2O)[C@](C)(O)C[C@@H](C)CN(C)[C@H](C)[C@@H](O)[C@]1(C)O (single isomer, unassigned) [Example 6] | ≤ 0.5 | ≤ 2 |  |  |
| CC[C@H]1OC(=O)[C@H](C)[C@@H](O[C@H]2C[C@@](C)(OC)[C@H](NC(=O)CCOCCOCCCc3ccc4c(c3)c(=O)c(C(=O)O)cn4CC)[C@H](C)O2)[C@H](C)[C@@H](O[C@@H]2O[C@H](C)C[C@H](N(C)C)[C@H]2O)[C@](C)(O)C[C@@H](C)CN(C)[C@H](C)[C@@H](O)[C@]1(C)O (single isomer, unassigned) [Example 4] |  | ≤ 2 |  |  |
| CC[C@H]1OC(=O)[C@H](C)[C@@H](O[C@H]2C[C@@](C)(OC)[C@H](NC(=O)CCOCCOCCCc3ccc4c(c3)c(=O)c(C(=O)O)cn4C3CC3)[C@H](C)O2)[C@H](C)[C@@H](O[C@@H]2O[C@H](C)C[C@H](N(C)C)[C@H]2O)[C@](C)(O)C[C@@H](C)CN(C)[C@H](C)[C@@H](O)[C@]1(C)O (single isomer, unassigned) [Example 9] | ≤ 0.5 | ≤ 2 |  |  |
| 4″(S)—N-(3-{2-[2-(3-Carboxy-7-chloro-1-cyclopropyl-4-oxo-1,4-dihydro-quinolin-6-ylamino)-ethoxy]-ethoxy}-propionyl}-azithromycin [Example 3] |  |  | ≤ 0.125 |  |
| CC[C@H]1OC(=O)[C@H](C)[C@@H](O[C@H]2C[C@@](C)(OC)[C@@H](NC(=O)CCOCCOCCCc3ccc4c(c3)c(=O)c(C(=O)O)cn4CC)[C@H](C)O2)[C@H](C)[C@@H](O[C@@H]2O[C@H](C)C[C@H](N(C)C)[C@H]2O)[C@](C)(O)C[C@@H](C)CN(C)[C@H](C)[C@@H](O)[C@]1(C)O (single isomer, unassigned) [Example 7] | ≤ 0.5 | ≤ 2 |  | ≤ 0.125 |
| CC[C@H]1OC(=O)[C@H](C)[C@@H](O[C@H]2C[C@@](C)(OC)[C@@H](NC(=O)CCOCCOCCCc3ccc4c(c3)c(=O)c(C(=O)O)cn4C3CC3)[C@H](C)O2)[C@H](C)[C@@H](O[C@@H]2O[C@H](C)C[C@H](N(C)C)[C@H]2O)[C@](C)(O)C[C@@H](C)CN(C)[C@H](C)[C@@H](O)[C@]1(C)O (single isomer, unassigned) [Example 8] | ≤ 0.5 | ≤ 2 |  | ≤ 0.125 |
